Values joined by “and” are separate entries in the source; they are usually repeats but may differ in a detail not shown here. Equal entries are not always repeated. Where two headings read alike, the source gives them in different places.
Legend:
[1] = target: T1, PDE9 (catalytic domain of PDE9A2) (Homo sapiens, UniProt O76083); experiment: Enzymatic assay against PDE9 (3H-cGMP hydrolysis, scintillation counting); type: biochemical; details: for inhibition at 0.01 µM: at a concentration of 0.01 μM
T1 construct: PDE9 recombinant catalytic domain (amino acid 181–506); made in house; host or cells: E. coli BL21 (Codonplus)
Protocol: In brief, E. coli strain BL21 (Codonplus), which carrying with recombinant pET-PDE9A2 plasmid, was grown in LB medium (containing 100 μg/mL ampicillin and 0.4% glucose) at 37 °C until an OD600 achieved 0.6–0.8. Then, the temperature was turned down to 15 °C, and 0.1 mM iso-propyl-b-D-thiogalactopyranoside was added to LB medium to induce the expression of PDE9A2 protein. Bacteria were induced for 20 h and collected for purified PDE9A2 recombinant protein by a Ni-NTA column (Qiagen, Venlo, The Netherlands).
As for the enzymatic assays, ^3H-cGMP (20,000–30,000 cpm, GE Healthcare), the substrate for enzymatic assays against PDE9A2, were diluted in an assay buffer (containing 50 mM Tris-HCl (pH 8.0), 10 mM MgCl2, and 1 mM DTT). And then, the substrate ^3H-cGMP, catalytic domain of PDE9A2, and different concentrations of tested compounds were incubated at room temperature for 15 min. To terminate the reaction, 0.2 M ZnSO4 and 0.2 N Ba(OH)2 were added to the mixture, leaving unreacted ^3H-cGMP in the supernatant. […] Each compound was measured at a minimum of eight concentrations for the IC50 calculation and repeated at least three times.
4.Enzymatic assays against PDE9
The assay buffer contains 50 mM Tris-HCl (pH 8.0), 10 mM MgCl2 or 4 mM MnCl2, 1 mM DTT, and 10-20 nM 3H-cGMP (15000−30000 cpm/assay, CPM control). The reaction was carried out at room temperature for 15 min and then terminated by addition of 0.2 M ZnSO4. The reaction product 3H-GMP was precipitated out by […], whereas unreacted 3H-cGMP remained in the supernatant. The radioactivity in the supernatant was measured in 2.5 […]
(CPMenzyme). For the measurement of IC50 of inhibitors, at least seven concentrations of inhibitors were used in the presence of 3H-cGMP. The enzyme concentration in a range of 10− 100 ng/mL, which hydrolyzed 50- 70% of the substrate, was chosen for each inhibitory assay. The radioactivity was recorded as CPMinhibitor. The IC50 values for PDE9 were calculated using a nonlinear regression analysis.
Inhibition = […] × 100%

[2] = Antioxidant activity, ORAC-FL method; details: Trolox as standard
Protocol: The modified Oxygen Radical Absorbance Capacity Fluorescein (ORAC-FL) method was used for antioxidant activity test. In brief, the mixture of test compounds (20 μL) and fluorescein (120 μL, final concentration of 150 nM) was added into a black 96-well plate and incubated for 15 min at 37 °C. Then, 60 μL of 2,2′-azobis(2-amidinopropane) dihydrochloride (AAPH) solution (12 mM) was added rapidly to induce the reaction. The fluorescence with an excitation wavelength of 485 nm and emission at 535 nm was measured in Spectrafluor Plus plate reader (Tecan, Crailsheim, Germany) every minute for 4 h. Integration of the area under the curve (AUC) was […] 1 to 8 μM Trolox was used as a standard. Each compound was tested at 1–10 μM at least in three independent assays. The ORAC-FL values of each compound were calculated according to Equation (1) and expressed as Trolox equivalents.(1) ORAC-FL value=AUCsample−AUCblank/AUCTrolox−AUCblank×ConcentrationTrolox/Concentrationsample

[3] = 0.25 h, read-out: Inhibition ratio against PDE9
[4] = 0.25 h, at a concentration of 0.1 μM, read-out: Inhibition ratio against PDE9
[5] = 100 nM, read-out: Inhibition (PDE9 dose-response, single runs)
[6] = 200 nM, read-out: Inhibition (PDE9 dose-response, single runs)
[7] = 400 nM, read-out: Inhibition (PDE9 dose-response, single runs)
[8] = 800 nM, read-out: Inhibition (PDE9 dose-response, single runs)
[9] = 1600 nM, read-out: Inhibition (PDE9 dose-response, single runs)

T1 sequence (O76083 241-566): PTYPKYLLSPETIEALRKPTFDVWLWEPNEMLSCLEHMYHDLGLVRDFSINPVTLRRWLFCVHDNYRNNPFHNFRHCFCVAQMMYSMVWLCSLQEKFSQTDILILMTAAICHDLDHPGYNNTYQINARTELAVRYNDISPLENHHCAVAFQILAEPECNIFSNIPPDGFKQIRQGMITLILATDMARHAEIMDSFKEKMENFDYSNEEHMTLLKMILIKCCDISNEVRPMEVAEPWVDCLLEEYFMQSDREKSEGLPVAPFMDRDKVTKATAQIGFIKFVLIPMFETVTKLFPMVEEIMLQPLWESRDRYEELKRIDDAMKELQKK

| IC50 [1] | inhibition at 0.01 µM [1, 3] [%] | inhibition at 0.1 µM [1, 4] [%] | Inhibition (PDE9 dose-response, single runs) ([1]; 6.25 nM, 0.00625 µM) | Inhibition (PDE9 dose-response, single runs) ([1]; 12.5 nM, 0.0125 µM) | Inhibition (PDE9 dose-response, single runs) ([1]; 25 nM, 0.025 µM) | Inhibition (PDE9 dose-response, single runs) ([1]; 50 nM, 0.05 µM) | Inhibition (PDE9 dose-response, single runs) ([1]; 100 nM, 0.1 µM) [%] | inhibition at 0.1 µM [1, 5] [%] | Inhibition (PDE9 dose-response, single runs) ([1]; 200 nM, 0.2 µM) [%] | inhibition at 0.2 µM [1, 6] [%] | Inhibition (PDE9 dose-response, single runs) ([1]; 400 nM, 0.4 µM) [%] | inhibition at 0.4 µM [1, 7] [%] | Inhibition (PDE9 dose-response, single runs) ([1]; 800 nM, 0.8 µM) [%] | inhibition at 0.8 µM [1, 8] [%] | Inhibition (PDE9 dose-response, single runs) ([1]; 1600 nM, 1.6 µM) [%] | inhibition at 1.6 µM [1, 9] [%] | SMILES | ORAC [2] | other results |
| --- | --- | --- | --- | --- | --- | --- | --- | --- | --- | --- | --- | --- | --- | --- | --- | --- | --- | --- | --- |
| 1.8 nM | 84 |  |  |  |  |  |  |  |  |  |  |  |  |  |  |  | COc1ccc2[nH]cc(CC(C)Nc3nc4c(cnn4C4CCCC4)c(=O)[nH]3)c2c1 (stereo not shown) [Compound 17c, 1-cyclopentyl-6-((1-(5-methoxy-1H-indol-3-yl)propan-2-yl)amino)-1,5-dihydro-4H-pyrazolo[3,4-d]pyrimidin-4-one] |  |  |
|  | 65 | 69 |  |  |  |  |  |  |  |  |  |  |  |  |  |  | COc1ccc2[nH]nc(CC(C)Nc3nc4c(cnn4C4CCCC4)c(=O)[nH]3)c2c1 (stereo not shown) [Compound 17h, 1-cyclopentyl-6-((1-(5-methoxy-1H-indazol-3-yl)propan-2-yl)amino)-1,5-dihydro-4H-pyrazolo[3,4-d]pyrimidin-4-one] | 0.22 ± 0.12 μmol of Trolox equiv/μmol tested compound |  |
| 194 nM |  | < 30 | -0.81% and -1.99% | 4.63% and -3.63% | -0.82% and 5.95% | -1.13% and 3.15% | 16.13 | 9.05 | 51.73 | 42.9 | 69.38 | 75.3 | 80.02 | 90.6 | 87.34 | 90.2 | COc1ccc2[nH]cc(CN[C@H](C)c3nc4c(cnn4C4CCCC4)c(=O)[nH]3)c2c1 [Compound 18c, (R)-1-cyclopentyl-6-(1-(((5-methoxy-1H-indol-3-yl)methyl)amino)ethyl)-1,5-dihydro-4H-pyrazolo[3,4-d]pyrimidin-4-one] |  |  |

The next lines start with the compound.

| SMILES | IC50 [1] | inhibition at 0.01 µM [1, 3] [%] | inhibition at 0.1 µM [1, 4] [%] | Inhibition (PDE9 dose-response, single runs) ([1]; 6.25 nM, 0.00625 µM) | Inhibition (PDE9 dose-response, single runs) ([1]; 12.5 nM, 0.0125 µM) | Inhibition (PDE9 dose-response, single runs) ([1]; 25 nM, 0.025 µM) | Inhibition (PDE9 dose-response, single runs) ([1]; 50 nM, 0.05 µM) | Inhibition (PDE9 dose-response, single runs) ([1]; 100 nM, 0.1 µM) [%] | inhibition at 0.1 µM [1, 5] [%] | Inhibition (PDE9 dose-response, single runs) ([1]; 200 nM, 0.2 µM) [%] | inhibition at 0.2 µM [1, 6] [%] | Inhibition (PDE9 dose-response, single runs) ([1]; 400 nM, 0.4 µM) [%] | inhibition at 0.4 µM [1, 7] [%] | Inhibition (PDE9 dose-response, single runs) ([1]; 800 nM, 0.8 µM) [%] | inhibition at 0.8 µM [1, 8] [%] | Inhibition (PDE9 dose-response, single runs) ([1]; 1600 nM, 1.6 µM) [%] | inhibition at 1.6 µM [1, 9] [%] | ORAC [2] | other results |
| --- | --- | --- | --- | --- | --- | --- | --- | --- | --- | --- | --- | --- | --- | --- | --- | --- | --- | --- | --- |
| CC(CC1CNc2ccccc21)Nc1nc2c(cnn2C2CCCC2)c(=O)[nH]1 (stereo not shown) [Compound 17f, 1-cyclopentyl-6-((1-(indolin-3-yl)propan-2-yl)amino)-1,5-dihydro-4H-pyrazolo[3,4-d]pyrimidin-4-one] |  | 59 | 67 |  |  |  |  |  |  |  |  |  |  |  |  |  |  | 0.66 ± 0.04 μmol of Trolox equiv/μmol tested compound |  |
| CC(CCc1c[nH]c2ccccc12)Nc1nc2c(cnn2C2CCCC2)c(=O)[nH]1 (stereo not shown) [Compound 17e, 6-((4-(1H-indol-3-yl)butan-2-yl)amino)-1-cyclopentyl-1,5-dihydro-4H-pyrazolo[3,4-d]pyrimidin-4-one] |  | 67 | 83 |  |  |  |  |  |  |  |  |  |  |  |  |  |  | 0.33 ± 0.002 μmol of Trolox equiv/μmol tested compound |  |
| O=c1[nH]c(NCCc2c[nH]c3ccc(O)cc23)nc2c1cnn2C1CCCC1 [Compound 17b, 1-cyclopentyl-6-((2-(5-hydroxy-1H-indol-3-yl)ethyl)amino)-1,5-dihydro-4H-pyrazolo[3,4-d]pyrimidin-4-one] | 91.1 nM and 91 nM | 16 |  | 9.16% | 9.23% and 4.22% | 21.21% | 34.04% | 49.42 | 55.3 | 66.06 | 67.7 | 76.31 | 82.6 | 86.82 | 90.6 | 94.94 | 95.1 |  | inhibition at 0.00625 µM ([1]; 6.25 nM, read-out: Inhibition (PDE9 dose-response, single runs)): 6.08%; inhibition at 0.025 µM ([1]; 25 nM, read-out: Inhibition (PDE9 dose-response, single runs)): 24.1%; inhibition at 0.05 µM ([1]; 50 nM, read-out: Inhibition (PDE9 dose-response, single runs)): 36.3% |

Reference: publication PMC11852235, “Discovery of Effective Inhibitors Against Phosphodiesterase 9, a Potential Therapeutic Target of Alzheimer’s Disease with Antioxidant Capacities” (Antioxidants, 2025)
